Source: patent USRE50528E1, “Compounds and compositions for modulating EGFR mutant kinase activities” (Yuhan Corporation, priority 2014, dated 2025)

Tests used:
EGFR mutant T790M = target: T1, EGFR mutant T790M (Homo sapiens, UniProt P00533, T790M); test: Kinase inhibition assay, EGFR mutant T790M; details: biochemical potency;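 note: truncated human EGFR mutant enzyme preincubated two hours with compound, then ATP plus ULight-PolyGT peptide for one hour, Europium-labeled antibody LANCE detection, IC50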
T1 construct: truncated human JAK3, EGFR mutants such as del E746-A750; purchased Carna Biosciences
T1 sequence (P00533 669-1210 T790M limits assumed): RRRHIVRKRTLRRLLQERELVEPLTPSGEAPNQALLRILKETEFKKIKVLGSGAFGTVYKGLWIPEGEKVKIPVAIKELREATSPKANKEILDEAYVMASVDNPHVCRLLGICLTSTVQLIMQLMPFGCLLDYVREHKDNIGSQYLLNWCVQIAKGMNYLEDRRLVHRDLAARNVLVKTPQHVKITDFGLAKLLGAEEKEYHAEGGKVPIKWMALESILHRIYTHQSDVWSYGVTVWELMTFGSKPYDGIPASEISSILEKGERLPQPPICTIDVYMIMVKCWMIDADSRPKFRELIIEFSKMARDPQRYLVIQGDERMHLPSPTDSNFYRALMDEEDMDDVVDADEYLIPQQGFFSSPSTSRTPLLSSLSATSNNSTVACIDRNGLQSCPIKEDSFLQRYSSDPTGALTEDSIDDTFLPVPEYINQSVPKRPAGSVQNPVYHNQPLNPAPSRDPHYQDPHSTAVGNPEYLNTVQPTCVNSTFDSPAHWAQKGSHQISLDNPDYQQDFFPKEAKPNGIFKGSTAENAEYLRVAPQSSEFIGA

[1] = target: T2, EGFR mutant Del19 (E746-A750) (Homo sapiens, UniProt P00533, DEL746-750); test: Kinase inhibition assay, EGFR del E746-A750; type: biochemical; details: read-out: EGFR mutants Del19 (E746-A750);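 note: truncated human EGFR mutant kinase, two-hour preincubation with compound, then one-hour reaction with ATP and ULight-PolyGT peptide, LANCE Europium-antibody phosphorylation readout, IC50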
T2 construct: truncated human JAK3, EGFR mutants such as del E746-A750; purchased Carna Biosciences

EGFR mutant L858R = target: T3, EGFR mutant L858R (Homo sapiens, UniProt P00533, L858R); test: Kinase inhibition assay, EGFR L858R; type: biochemical; details: read-out: EGFR mutants L858R;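 note: truncated human EGFR L858R kinase with compound preincubation, ULight-PolyGT peptide phosphorylation read by Europium-antibody Lance detection, IC50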
T3 construct: truncated human JAK3, EGFR mutants such as del E746-A750; purchased Carna Biosciences
T3 sequence (P00533 669-1210 L858R limits assumed): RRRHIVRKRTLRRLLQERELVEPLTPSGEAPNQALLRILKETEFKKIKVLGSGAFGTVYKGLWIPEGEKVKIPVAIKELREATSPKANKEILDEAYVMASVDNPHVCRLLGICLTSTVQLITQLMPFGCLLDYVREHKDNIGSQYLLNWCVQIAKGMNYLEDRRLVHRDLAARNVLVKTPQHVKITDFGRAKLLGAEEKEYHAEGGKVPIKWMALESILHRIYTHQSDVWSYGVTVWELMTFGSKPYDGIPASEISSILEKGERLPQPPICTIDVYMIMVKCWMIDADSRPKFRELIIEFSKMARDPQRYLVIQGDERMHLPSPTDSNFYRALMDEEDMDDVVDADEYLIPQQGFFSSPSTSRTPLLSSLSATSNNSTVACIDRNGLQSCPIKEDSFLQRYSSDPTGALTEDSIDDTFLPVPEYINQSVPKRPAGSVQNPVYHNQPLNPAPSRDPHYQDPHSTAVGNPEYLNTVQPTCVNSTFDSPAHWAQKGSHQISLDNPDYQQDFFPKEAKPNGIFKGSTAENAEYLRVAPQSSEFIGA

EGFR mutant L858R/T790M = target: T4, EGFR mutant L858R/T790M (Homo sapiens, UniProt P00533, L858R/T790M); test: Kinase inhibition assay, EGFR L858R/T790M; type: biochemical; details: read-out: EGFR mutants L858R/T790M;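 note: truncated human enzyme preincubated two hours with compound, then one hour with one millimolar ATP and ULight-PolyGT peptide, Europium-labeled antibody detection, IC50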
T4 construct: truncated human JAK3, EGFR mutants such as del E746-A750; purchased Carna Biosciences
T4 sequence (P00533 669-1210 T790M/L858R limits assumed): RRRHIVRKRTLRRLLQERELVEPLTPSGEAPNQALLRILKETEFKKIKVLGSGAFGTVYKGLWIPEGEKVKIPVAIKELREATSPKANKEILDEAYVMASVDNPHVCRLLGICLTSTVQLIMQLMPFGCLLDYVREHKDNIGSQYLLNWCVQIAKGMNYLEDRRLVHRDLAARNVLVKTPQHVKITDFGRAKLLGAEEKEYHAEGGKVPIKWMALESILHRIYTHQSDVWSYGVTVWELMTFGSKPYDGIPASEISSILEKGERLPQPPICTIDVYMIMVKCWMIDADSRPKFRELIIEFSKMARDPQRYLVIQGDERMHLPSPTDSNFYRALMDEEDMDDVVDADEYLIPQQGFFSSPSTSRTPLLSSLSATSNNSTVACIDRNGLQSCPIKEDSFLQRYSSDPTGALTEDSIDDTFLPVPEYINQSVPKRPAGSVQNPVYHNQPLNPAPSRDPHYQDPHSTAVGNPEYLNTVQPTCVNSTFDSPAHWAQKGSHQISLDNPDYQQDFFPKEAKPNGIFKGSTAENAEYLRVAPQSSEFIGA

EGFR mutant Del19/T790M = target: T5, EGFR mutant Del19/T790M (Homo sapiens, UniProt P00533, DEL746-750/T790M); test: Kinase inhibition assay, EGFR del E746-A750/T790M; type: biochemical; details: read-out: EGFR mutants Del19/T790M
T5 construct: truncated human JAK3, EGFR mutants such as del E746-A750; purchased Carna Biosciences
T5 sequence (P00533 with tags, fused parts or gaps DEL746-750/T790M limits assumed): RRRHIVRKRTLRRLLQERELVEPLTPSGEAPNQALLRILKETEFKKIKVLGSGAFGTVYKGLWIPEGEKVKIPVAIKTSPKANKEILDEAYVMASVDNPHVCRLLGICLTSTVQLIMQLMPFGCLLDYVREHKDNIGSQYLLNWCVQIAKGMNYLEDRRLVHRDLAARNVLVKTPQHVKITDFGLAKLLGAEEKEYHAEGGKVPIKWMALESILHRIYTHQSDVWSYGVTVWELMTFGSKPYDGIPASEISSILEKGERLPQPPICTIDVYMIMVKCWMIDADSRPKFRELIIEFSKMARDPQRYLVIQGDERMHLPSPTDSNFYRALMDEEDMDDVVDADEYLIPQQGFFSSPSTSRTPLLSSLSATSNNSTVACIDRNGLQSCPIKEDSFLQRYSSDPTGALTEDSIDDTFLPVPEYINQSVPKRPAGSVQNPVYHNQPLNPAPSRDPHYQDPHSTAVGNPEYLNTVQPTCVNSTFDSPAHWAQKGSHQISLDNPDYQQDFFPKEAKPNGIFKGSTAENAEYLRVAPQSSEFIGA

JAK3 = target: T6, JAK3 (Homo sapiens, UniProt P52333); test: Kinase inhibition assay, JAK3; details: biochemical potency;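 note: IC50 against purified truncated human JAK3 preincubated with compound, then reacted with ATP and ULight-Jak1 peptide, phosphorylation read by Europium-labeled antibody LANCE detection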
T6 construct: EGFR and JAK3 (JH1domain-catalytic) kinases, and mutant forms thereof; purchased Carna Biosciences
T6 sequence (P52333 822-1111 limits assumed): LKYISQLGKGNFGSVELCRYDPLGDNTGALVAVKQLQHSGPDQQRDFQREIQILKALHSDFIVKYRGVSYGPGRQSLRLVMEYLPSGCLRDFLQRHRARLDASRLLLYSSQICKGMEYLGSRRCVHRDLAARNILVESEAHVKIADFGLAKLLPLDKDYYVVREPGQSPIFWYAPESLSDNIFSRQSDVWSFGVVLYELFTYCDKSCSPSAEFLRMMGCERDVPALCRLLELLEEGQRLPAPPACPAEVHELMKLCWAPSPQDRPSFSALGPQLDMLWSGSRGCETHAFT

SYK = target: T7, SYK (Homo sapiens, UniProt P43405); test: Kinase inhibition assay, SYK; type: biochemical; details: for IC50: biochemical potency;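 for all read-outs here: purified full-length human SYK pre-incubated 30 min with compound, then ULight-TK peptide phosphorylation for 1 h, detected with Europium-labeled antibody in Lance buffer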
T7 construct: Purified human, full-length SYK, KDR; purchased Carna Biosciences

KDR = target: T8, KDR (Homo sapiens, UniProt P35968); test: Kinase inhibition assay, KDR; type: biochemical; details: for IC50: biochemical potency;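 for all read-outs here: purified full-length human KDR, 30 min preincubation with compound, then 1 h reaction with ATP and Ulight-Jak1 peptide substrate, phosphorylation read by Lance Europium antibody detection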
T8 construct: Purified human, full-length SYK, KDR; purchased Carna Biosciences
T8 sequence (P35968 20-1356): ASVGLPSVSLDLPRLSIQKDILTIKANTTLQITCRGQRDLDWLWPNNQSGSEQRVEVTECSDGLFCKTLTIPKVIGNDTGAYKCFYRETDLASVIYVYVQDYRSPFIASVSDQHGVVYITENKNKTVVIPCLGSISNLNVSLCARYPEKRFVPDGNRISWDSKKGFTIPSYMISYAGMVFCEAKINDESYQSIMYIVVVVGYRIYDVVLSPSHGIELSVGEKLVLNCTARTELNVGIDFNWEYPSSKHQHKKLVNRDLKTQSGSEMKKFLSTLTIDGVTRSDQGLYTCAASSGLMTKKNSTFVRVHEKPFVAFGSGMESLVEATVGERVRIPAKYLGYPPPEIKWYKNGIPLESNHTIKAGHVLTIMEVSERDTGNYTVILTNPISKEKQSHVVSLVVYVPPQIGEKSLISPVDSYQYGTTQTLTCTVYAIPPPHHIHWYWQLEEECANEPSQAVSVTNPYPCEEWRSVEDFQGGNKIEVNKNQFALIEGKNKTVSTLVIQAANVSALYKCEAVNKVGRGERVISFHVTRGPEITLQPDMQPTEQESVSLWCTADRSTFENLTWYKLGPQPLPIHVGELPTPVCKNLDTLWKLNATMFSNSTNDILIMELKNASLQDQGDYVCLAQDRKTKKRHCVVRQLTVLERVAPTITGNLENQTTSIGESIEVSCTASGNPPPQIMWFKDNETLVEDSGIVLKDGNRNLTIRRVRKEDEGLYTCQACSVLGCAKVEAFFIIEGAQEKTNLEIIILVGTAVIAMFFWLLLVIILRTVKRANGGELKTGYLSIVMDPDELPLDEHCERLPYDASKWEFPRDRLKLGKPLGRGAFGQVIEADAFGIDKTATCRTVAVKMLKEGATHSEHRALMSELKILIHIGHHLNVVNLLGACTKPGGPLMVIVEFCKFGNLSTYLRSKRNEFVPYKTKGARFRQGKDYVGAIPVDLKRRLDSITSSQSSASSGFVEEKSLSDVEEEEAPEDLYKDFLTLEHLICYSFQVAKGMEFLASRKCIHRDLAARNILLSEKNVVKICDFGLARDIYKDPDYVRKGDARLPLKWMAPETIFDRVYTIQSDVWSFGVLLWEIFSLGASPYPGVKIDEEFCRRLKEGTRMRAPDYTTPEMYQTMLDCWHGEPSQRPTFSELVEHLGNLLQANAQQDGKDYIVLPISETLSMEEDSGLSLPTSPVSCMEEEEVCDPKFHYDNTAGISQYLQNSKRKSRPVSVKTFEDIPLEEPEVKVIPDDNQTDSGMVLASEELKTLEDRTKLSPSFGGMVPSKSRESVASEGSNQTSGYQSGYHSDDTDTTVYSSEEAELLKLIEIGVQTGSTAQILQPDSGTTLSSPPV

H2073 (EGFR wildtype) = test: Cell viability assay, H2073; type: cell-based; details: for IC50: NCI-H2073, cellular potency, 72-hour incubation, ATPLite;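 for all read-outs here: NSCLC cell line whose survival relies on wildtype EGFR, treated with serially diluted compound, cytotoxic effect judged from remaining cell viability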
[2] = test system: PC9 (EGFR del E746-A750 mutant); test: Cell viability assay, PC9; type: cell-based; details: for Selectivity over wildtype, Wildtype vs mutant H2073/PC9 (fold): cellular potency ratio; for IC50: cellular potency, 72-hour incubation, ATPLite, read-out: EGFR Mutants PC9;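 for all read-outs here: NSCLC PC9 cells, whose viability relies on EGFR del E746-A750, exposed to serially diluted compound for 72 h at 37 °C, ATPLite read-out, IC50, H2073 as EGFR wildtype line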
[3] = test system: H1975 (EGFR L858R/T790M mutant); test: Cell viability assay, H1975; type: cell-based; details: for IC50: Homo sapiens, NCI-H1975, cellular potency, 72-hour incubation, ATPLite, read-out: EGFR Mutants H1975; for Selectivity over wildtype, Wildtype vs mutant H2073/H1975 (fold): cellular potency ratio;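 for all read-outs here: NSCLC cells whose survival relies on EGFR L858R/T790M, exposed 72 h to serially diluted compound, ATP-based viability readout, with the H2073 line (wildtype EGFR dependent) as wildtype comparator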
p-EGFR wildtype = target: T9, p-EGFR wildtype (Homo sapiens, UniProt P00533); test: Western analysis, H1299 p-EGFR wildtype; type: cell-based; details: for inhibition against p-EGFR wildtype (in words): Western, FIG. 1; for IC50: molecular potency, 4 hours, 3 nM EGF ligand
T9 construct: endogenous in cells; host or cells: H1299
T9 sequence (P00533 25-1210): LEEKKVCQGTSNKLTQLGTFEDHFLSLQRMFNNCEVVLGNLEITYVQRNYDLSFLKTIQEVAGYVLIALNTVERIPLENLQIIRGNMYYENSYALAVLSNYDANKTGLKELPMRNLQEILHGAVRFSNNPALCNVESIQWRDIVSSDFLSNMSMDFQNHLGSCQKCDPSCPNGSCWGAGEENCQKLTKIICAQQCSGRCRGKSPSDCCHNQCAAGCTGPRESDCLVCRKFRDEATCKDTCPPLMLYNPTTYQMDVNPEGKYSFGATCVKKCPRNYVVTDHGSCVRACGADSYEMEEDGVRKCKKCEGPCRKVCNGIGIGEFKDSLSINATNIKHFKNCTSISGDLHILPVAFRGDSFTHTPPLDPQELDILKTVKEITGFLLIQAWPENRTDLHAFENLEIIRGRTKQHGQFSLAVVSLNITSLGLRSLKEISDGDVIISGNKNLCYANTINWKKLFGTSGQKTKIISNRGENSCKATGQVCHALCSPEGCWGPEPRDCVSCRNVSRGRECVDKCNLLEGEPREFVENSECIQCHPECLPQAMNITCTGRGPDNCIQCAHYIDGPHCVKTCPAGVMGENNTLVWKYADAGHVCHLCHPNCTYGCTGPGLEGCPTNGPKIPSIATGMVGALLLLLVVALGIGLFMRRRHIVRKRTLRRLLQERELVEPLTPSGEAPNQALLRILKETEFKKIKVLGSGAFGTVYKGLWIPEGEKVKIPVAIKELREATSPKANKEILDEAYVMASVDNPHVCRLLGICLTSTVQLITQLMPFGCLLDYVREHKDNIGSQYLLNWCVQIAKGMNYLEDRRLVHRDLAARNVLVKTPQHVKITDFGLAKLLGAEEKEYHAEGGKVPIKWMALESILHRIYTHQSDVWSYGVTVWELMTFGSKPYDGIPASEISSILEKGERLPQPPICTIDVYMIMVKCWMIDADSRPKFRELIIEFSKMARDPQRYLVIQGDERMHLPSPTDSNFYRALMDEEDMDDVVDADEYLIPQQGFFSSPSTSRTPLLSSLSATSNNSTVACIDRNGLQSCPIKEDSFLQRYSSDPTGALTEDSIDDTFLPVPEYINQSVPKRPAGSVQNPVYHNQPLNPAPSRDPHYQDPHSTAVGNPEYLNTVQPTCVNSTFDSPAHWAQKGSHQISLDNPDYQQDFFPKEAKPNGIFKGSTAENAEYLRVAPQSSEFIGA

p-EGFR del E746-A750 = target: T10, p-EGFR del E746-A750 (Homo sapiens, UniProt P00533, DEL746-750); test: Western analysis, PC9 p-EGFR del E746-A750; type: cell-based; details: for Selectivity over wildtype: p-wildtype over p-EGFR del19: H1299 vs PC9; for inhibition against p-EGFR del E746-A750 (in words): Western, FIG. 1; for IC50: molecular potency, 4 hours, read-out: PC9 p-EGFR del 19 (E746-A750)
T10 construct: phosphorylation of mutant EGFR in NSCLC lines PC9; endogenous in cells; host or cells: PC9

p-EGFR L858R/T790M = target: T11, p-EGFR L858R/T790M (Homo sapiens, UniProt P00533, L858R/T790M); test: Western analysis, H1975 p-EGFR L858R/T790M; type: cell-based; details: for Selectivity over wildtype: p-wildtype over p-EGFR L858R, T790M: H1299 vs H1975; for inhibition against p-EGFR L858R/T790M (in words): Western, FIG. 1; for IC50: molecular potency, 4 hours
T11 construct: phosphorylation of mutant EGFR in NSCLC lines H1975; endogenous in cells; host or cells: H1975

[4] = approximate ATP Km concentration

IC50 (EGFR mutant T790M) | IC50 [1] | IC50 (EGFR mutant L858R) | IC50 (EGFR mutant L858R/T790M) | IC50 (EGFR mutant Del19/T790M) | IC50 (JAK3) | IC50 (SYK) | IC50 (KDR) | IC50 (H2073 (EGFR wildtype)) | IC50 [2] | IC50 [3] | inhibition against p-EGFR wildtype (in words) (p-EGFR wildtype) | IC50 (p-EGFR wildtype) | Selectivity over wildtype: p-wildtype over p-EGFR del19 (p-EGFR del E746-A750) | inhibition against p-EGFR del E746-A750 (in words) (p-EGFR del E746-A750) | IC50 (p-EGFR del E746-A750) | Selectivity over wildtype: p-wildtype over p-EGFR L858R, T790M (p-EGFR L858R/T790M) | IC50 (p-EGFR L858R/T790M) | SMILES | Selectivity over wildtype, Wildtype vs mutant H2073/PC9 (fold) [2] | Selectivity over wildtype, Wildtype vs mutant H2073/H1975 (fold) [3] | further results
< 20 nM | < 20 nM | < 20 nM | < 20 nM | < 20 nM | < 20 nM | 201 to 1000 nM | > 1000 nM | > 1000 nM | < 20 nM | < 20 nM | not p-EGFR wildtype | 201 to 1000 nM | 20-100 fold | potent inhibition | < 20 nM | 20-100 fold | < 20 nM | C=CC(=O)Nc1cc(Nc2nccc(-n3cc(CN(C)C)c(-c4ccccc4)n3)n2)c(OC)cc1N1CCOCC1 [Compound 73, N-(5-(4-(4-((dimethylamino)methyl)-3-phenyl-1H-pyrazol-1-yl)pyrimidin-2-ylamino)-4-methoxy-2-morpholinophenyl)acrylamide] | >200 fold | >200 fold | inhibition of the kinase activity of SYK (in words) (SYK; [4]): poorly inhibit; inhibition of the kinase activity of KDR (in words) (KDR; [4]): poorly inhibit; inhibition in H2073 cell (in words) (H2073 (EGFR wildtype); cell viability): not in H2073; inhibition in PC9 cell (in words) ([2]; cell viability): potent inhibition; Selectivity over wildtype, Wildtype vs mutant H2073/PC9 (fold) ([2]; listed as compound 73): > 200 fold; inhibition in H1975 cell (in words) ([3]; cell viability): potent inhibition; Selectivity over wildtype, Wildtype vs mutant H2073/H1975 (fold) ([3]; listed as compound 73): > 200 fold; inhibition against p-EGFR L858R/T790M (in words) (p-EGFR L858R/T790M): potent inhibition
< 20 nM | < 20 nM | < 20 nM | < 20 nM | < 20 nM | < 20 nM | 201 to 1000 nM | > 1000 nM | > 1000 nM | 20 to 200 nM | 20 to 200 nM | not p-EGFR wildtype | > 1000 nM | >200 fold | potent inhibition | < 20 nM | >200 fold | < 20 nM | C=CC(=O)Nc1cc(Nc2ncc(C)c(-n3cc(CN4C[C@H](O)[C@H](OC)C4)c(C)n3)n2)c(OC)cc1N1CCOCC1 [Compound 26, N-(5-(4-(4-(((3S,4R)-3-hydroxy-4-methoxypyrrolidin-1-yl)methyl)-3-methyl-1H-pyrazol-1-yl)-5-methylpyrimidin-2-ylamino)-4-methoxy-2-morpholinophenyl)acrylamide] | 20-100 fold | 101-200 fold | Selectivity over wildtype: p-wildtype over p-EGFR del19 (p-EGFR del E746-A750; listed as compound 26): 572.4 fold; Selectivity over wildtype: p-wildtype over p-EGFR L858R, T790M (p-EGFR L858R/T790M; listed as compound 26): 1440.3 fold; inhibition against p-EGFR L858R/T790M (in words) (p-EGFR L858R/T790M): potent inhibition
< 20 nM | < 20 nM | < 20 nM | < 20 nM | < 20 nM | < 20 nM | 201 to 1000 nM | > 1000 nM | > 1000 nM | < 20 nM | 20 to 200 nM | – | 20 to 200 nM | 20-100 fold | – | < 20 nM | 20-100 fold | < 20 nM | C=CC(=O)Nc1cc(Nc2nccc(-n3cc(CN(C)C)c(C)n3)n2)c(OC)cc1N1CCOCC1 [Compound 46, N-(5-(4-(4-((dimethylamino)methyl)-3-methyl-1H-pyrazol-1-yl)pyrimidin-2-ylamino)-4-methoxy-2-morpholinophenyl)acrylamide] | >200 fold | 101-200 fold | –
